Measurements taken from patent US20060127980A1, “Human excitatory amino acid transporter-2 gene promoter and uses thereof” (priority 2003, published 2006).

Columns and labels:
[1] = tested on: hEAAT2 protein; assay: Western blot of EAAT2 protein in PHFA; assay type: cell-based, human
Experimental: FIG. 5A-E. Effect of pharmacological inhibitors on hEAAT2 promoter activity, and mRNA and protein expression in PHFA following various treatment protocols. A. hEAAT2 promoter activity in PHFA, either untreated (−) or treated with EGF (30 ng/ml), in the absence (−) or presence (+) of KT5720 (5 μM), AG1478 (1 μM), PDTC (100 μM), wortmannin (WRT) (100 nM) or PD98049 (PD) (50 μM). B. hEAAT2 promoter activity in PHFA, either untreated (−) or treated with bromo-cAMP (250 μM) in the absence (−) or presence (+) of KT5720 (5 μM), AG1478 (1 μM), PDTC (100 μM), wortmannin (WRT) (100 nM) or PD98049 (PD) (50 μM). C. hEAAT2 promoter activity in PHFA, either untreated (−) or treated with TNF-α (200 U/ml), in the absence (−) or presence (+) of KT5720 (5 μM), AG1478 (1 μM), PDTC (100 μM), wortmannin (WRT) (100 nM) or PD98049 (PD) (50 μM). D. The effect of the various treatment protocols on hEAAT2 and GAPDH mRNA levels. Upper panel presents relative hEAAT2 RNA expression versus GAPDH expression relative to control untreated or treated samples based on scanning of autoradiograms. Lower panel, actual Northern blots. E. The effect of the various treatment protocols on EAAT2 and ACTIN protein levels. Upper panel presents relative EAAT2 protein expression versus ACTIN expression relative to control untreated or treated samples based on scanning of autoradiograms. Individual experiments were performed 3 times using triplicate samples and S.D. from the mean is presented.
Northern and Western Blotting Assays. Total cellular RNA was isolated by the guanidinium/phenol extraction method and Northern blotting was performed as described (Huang et al., 2001, Oncogene 20(48):7051-7063; Su et al., 2000, Oncogene 19(30):3411-3421; Su et al., 2001, Nucleic Acids Res 29(8):1661-1671). Western blotting assays were performed as described (Su et al., 1998, Proc Natl Acad Sci USA 95(24):14400-14405; Su et al., 2002, Oncogene 21(22):3592-602).

[2] = tested on: hEAAT2 promoter; assay: flhEAAT2Prom-luc and deletion mutant luciferase reporter assay in PHFA treated with modulators; assay type: cell-based, human; settings: four day treatment
Experimental: FIG. 4A-D. Effect of modulators of hEAAT2 activity on hEAAT2 expression and hEAAT2 promoter activity in PHFA. A. A Northern analysis of hEAAT2 and GAPDH mRNA expression following treatment with EGF (30 ng/ml), TGF-α (30 ng/ml), dbcAMP (200 μM, bromo-cAMP (100 μM) or TNF-α (200 U/ml) for 7 days. B. Nuclear run-on assays determining the relative rates of hEAAT2 and GAPDH transcription as a function of 7-day treatment with the same concentrations of the indicated agents. C. A time course of mRNA expression of hEAAT2 and GAPDH following treatment with EGF, bromo-cAMP or TNF-α (same concentrations as in A.). D. Fold luciferase activity in PHFA transfected with flhEAAT2Prom-luc or various deletion mutants of hEAAT2 and non-transfected controls treated with the indicated compounds for four days.
Construction of hEAAT2 Promoter Deletion Mutants and Performance of the Luciferase Assays. 5′-deletion mutants of the hEAAT2 promoter were made with exonuclease III digestion using the Erase-A-Base System (Promega) as described for the PEG-3 promoter (Su et al., 2000, Oncogene 19(30):3411-3421). The flhEAAT2Prom-luc and flhEAAT2Prom-luc deletion mutants were cloned into the pGL3-basic luciferase reporter vector (Promega) and luciferase reporter assays were performed as described (Su et al., 2000, Oncogene 19(30):3411-3421; Su et al., 2001, Nucleic Acids Res 29(8):1661-1671), except that instead of using lipofectamine, which was toxic to PHFA, the calcium phosphate precipitation transfection technique was used (Babiss et al., 1986, Proc Natl Acad Sci USA 83(7):2167-2171).
Preferential Expression of the hEAAT2 Promoter in PHFA and Deletion Analysis of the hEAAT2 Promoter. hEAAT2 is expressed in brain-derived cells, mainly astrocytes (Tanaka et al., 1997, Science 276(5319):1699-1702; Anderson et al., 2000, Glia 32(1):1-14). Experiments were performed to confirm hEAAT2 promoter activity in normal human astrocytes and to determine expression levels in other cell types (FIG. 2A). Primary early passage and established human normal and tumor cell lines were co-transfected with a putative full-length ˜2.5 kb hEAAT2 promoter, a SacII fragment extending from bp −2426 to bp +44, was cloned into the pGL3-basic vector (Promega), where it drove expression of the firefly luciferase (luc) gene, and a pSV-β-galactosidase expression plasmid. Relative fold expression of a full length hEAAT2 promoter-luciferase (flhEAAT2Prom-luc) construct was determined as described (Su et al., 2000, Oncogene 19(30):3411-3421; Su et al., 2001, Nucleic Acids Res 29(8):1661-1671), and activity versus transfection with a pSV-β-galactosidase plasmid was calculated as described (Su et al., 2000, Oncogene 19(30):3411-3421; Su et al., 2001, Nucleic Acids Res 29(8):1661-1671) to equalize for differences in transfection efficiency.
To examine further the relationship between hEAAT2 and treatment with the various glutamate transporter modulators, transient transfection assays were performed in PHFA using the flhEAAT2Prom-luc constructs and various deletions thereof (FIG. 4D). […] In the case of dbcAMP, promoter activity was enhanced by ˜3-fold.

CCCC(=O)Nc1ncnc2c1ncn2[C@@H]1O[C@@H]2COP(=O)(O)O[C@H]2[C@H]1OC(=O)CCC [dbcAMP, dibutyryl cyclic AMP]
hEAAT2 protein levels [1]: upregulated | stimulation of promoter activity after deletion of bp −2426 to bp −703 ([2]; deletion mutant): did not significantly decrease | upregulation of promoter activity after deletion of bp −703 to bp −326 ([2]; deletion mutant): most relevant | upregulation of hEAAT2 promoter activity ([2]; flhEAAT2Prom-luc): ~3 fold
